Experimental data as given in PubChem BioAssay (NCI).
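Results reflect a 48-hour exposure of cells in 96-well plates to compound at five concentrations. At the GI50, growth is halved. TGI: total growth inhibition.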

Columns and labels:
Experiment in all cases: NCI-60 cell line screen, 48 h; in the data active = GI50 below about 0.43 µM; inactive = the rest
ACHN renal = tested on: ACHN renal
SNB-75 CNS = tested on: SNB-75 CNS
EKVX NSCLC = tested on: EKVX NSCLC
SK-MEL-28 melanoma = tested on: SK-MEL-28 melanoma
HS 578T breast = tested on: HS 578T breast
RXF 393 renal = tested on: RXF 393 renal
CCRF-CEM leukemia = tested on: CCRF-CEM leukemia
K-562 leukemia = tested on: K-562 leukemia
HL-60(TB) leukemia = tested on: HL-60(TB) leukemia
SW-620 colon = tested on: SW-620 colon
M14 melanoma = tested on: M14 melanoma
TK-10 renal = tested on: TK-10 renal
OVCAR-3 ovarian = tested on: OVCAR-3 ovarian
LOX IMVI melanoma = tested on: LOX IMVI melanoma
UO-31 renal = tested on: UO-31 renal
OVCAR-4 ovarian = tested on: OVCAR-4 ovarian
HOP-92 NSCLC = tested on: HOP-92 NSCLC
NCI-H522 lung = tested on: NCI-H522 lung
NCI/ADR-RES ovarian = tested on: NCI/ADR-RES ovarian
BT-549 breast = tested on: BT-549 breast
U251 CNS = tested on: U251 CNS
SK-MEL-5 melanoma = tested on: SK-MEL-5 melanoma
HCT-15 colon = tested on: HCT-15 colon
UACC-257 melanoma = tested on: UACC-257 melanoma
SNB-19 CNS = tested on: SNB-19 CNS
MCF7 breast = tested on: MCF7 breast
KM12 colon = tested on: KM12 colon
HT29 colon = tested on: HT29 colon
SF-268 CNS = tested on: SF-268 CNS
OVCAR-5 ovarian = tested on: OVCAR-5 ovarian
A498 renal = tested on: A498 renal
UACC-62 melanoma = tested on: UACC-62 melanoma
NCI-H226 lung = tested on: NCI-H226 lung
SF-539 CNS = tested on: SF-539 CNS
SR leukemia = tested on: SR leukemia
HCC-2998 colon = tested on: HCC-2998 colon
SN12C renal = tested on: SN12C renal
A549 NSCLC = tested on: A549 NSCLC
CAKI-1 renal = tested on: CAKI-1 renal
T-47D breast = tested on: T-47D breast
DU-145 prostate = tested on: DU-145 prostate
SK-OV-3 ovarian = tested on: SK-OV-3 ovarian
MOLT-4 leukemia = tested on: MOLT-4 leukemia
RPMI-8226 leukemia = tested on: RPMI-8226 leukemia
PC-3 prostate = tested on: PC-3 prostate
786-0 renal = tested on: 786-0 renal
OVCAR-8 ovarian = tested on: OVCAR-8 ovarian
SF-295 CNS = tested on: SF-295 CNS
IGROV1 ovarian = tested on: IGROV1 ovarian
NCI-H460 lung = tested on: NCI-H460 lung
NCI-H23 lung = tested on: NCI-H23 lung
COLO 205 colon = tested on: COLO 205 colon
HOP-62 NSCLC = tested on: HOP-62 NSCLC
MDA-MB-435 = tested on: MDA-MB-435
MALME-3M melanoma = tested on: MALME-3M melanoma
MDA-MB-231 breast = tested on: MDA-MB-231 breast
SK-MEL-2 melanoma = tested on: SK-MEL-2 melanoma
HCT-116 colon = tested on: HCT-116 colon
MDA-N = tested on: MDA-N

COc1cccc(CCC2CCCN(c3cc(C)nc(N)n3)C2)c1 (configuration not stated)
1.32 µM: TGI (SK-MEL-5 melanoma)
14.8 µM: TGI (TK-10 renal)
5.49 µM: TGI (UACC-62 melanoma)
15.2 µM: TGI (A549 NSCLC)
0.404 µM: TGI (MDA-MB-435)
1.49 µM: TGI (HT29 colon)
inactive: GI50 (ACHN renal) 0.625 µM | GI50 (EKVX NSCLC) 0.558 µM | GI50 (SK-MEL-28 melanoma) 1.12 µM | GI50 (TK-10 renal) 0.794 µM | GI50 (LOX IMVI melanoma) 0.609 µM | GI50 (UO-31 renal) 0.576 µM | GI50 (OVCAR-4 ovarian) 0.692 µM | GI50 (HOP-92 NSCLC) 0.519 µM | GI50 (BT-549 breast) 0.69 µM | GI50 (UACC-257 melanoma) 1.37 µM | GI50 (SNB-19 CNS) 0.521 µM | GI50 (SF-268 CNS) 0.643 µM | GI50 (OVCAR-5 ovarian) 1.54 µM | GI50 (NCI-H226 lung) 1.91 µM | GI50 (HCC-2998 colon) 1.54 µM | GI50 (SN12C renal) 0.635 µM | GI50 (A549 NSCLC) 0.722 µM | GI50 (MOLT-4 leukemia) 0.496 µM | GI50 (786-0 renal) 0.526 µM | GI50 (OVCAR-8 ovarian) 0.531 µM | GI50 (IGROV1 ovarian) 0.666 µM | GI50 (NCI-H23 lung) 0.614 µM | GI50 (HOP-62 NSCLC) 0.434 µM | GI50 (MALME-3M melanoma) 0.527 µM | GI50 (MDA-MB-231 breast) 1.2 µM | GI50 (SK-MEL-2 melanoma) 0.435 µM | GI50 (HCT-116 colon) 0.484 µM
6.43 µM: TGI (HOP-62 NSCLC)
3.46 µM: TGI (SNB-75 CNS)
4.09 µM: TGI (SR leukemia)
10.6 µM: TGI (K-562 leukemia) | TGI (SF-295 CNS)
0.686 µM: TGI (HL-60(TB) leukemia)
14.1 µM: TGI (ACHN renal) | TGI (PC-3 prostate)
17.7 µM: TGI (UACC-257 melanoma) | TGI (OVCAR-5 ovarian)
3.16 µM: TGI (NCI-H522 lung)
11.7 µM: TGI (SK-OV-3 ovarian)
11.6 µM: TGI (HOP-92 NSCLC) | TGI (NCI-H460 lung)
13.2 µM: TGI (MOLT-4 leukemia)
5.87 µM: TGI (RXF 393 renal)
2.51 µM: TGI (A498 renal)
12.5 µM: TGI (SF-268 CNS)
14.9 µM: TGI (MALME-3M melanoma)
8.23 µM: TGI (SK-MEL-2 melanoma)
13.4 µM: TGI (CAKI-1 renal)
11.5 µM: TGI (SN12C renal) | TGI (MDA-MB-231 breast)
2.6 µM: TGI (M14 melanoma)
22.2 µM: TGI (CCRF-CEM leukemia)
13.5 µM: TGI (BT-549 breast)
16 µM: TGI (SK-MEL-28 melanoma) | TGI (SNB-19 CNS)
3.13 µM: TGI (RPMI-8226 leukemia)
12.4 µM: TGI (KM12 colon)
8.93 µM: TGI (OVCAR-8 ovarian)
14 µM: TGI (NCI-H23 lung)
1.06 µM: TGI (COLO 205 colon)
7.52 µM: TGI (HCC-2998 colon)
12.8 µM: TGI (IGROV1 ovarian)
active: GI50 (SNB-75 CNS) 0.194 µM | GI50 (HS 578T breast) 0.418 µM | GI50 (RXF 393 renal) 0.368 µM | GI50 (CCRF-CEM leukemia) 0.34 µM | GI50 (K-562 leukemia) 0.259 µM | GI50 (HL-60(TB) leukemia) 0.251 µM | GI50 (SW-620 colon) 0.363 µM | GI50 (M14 melanoma) 0.302 µM | GI50 (OVCAR-3 ovarian) 0.242 µM | GI50 (NCI-H522 lung) 0.289 µM | GI50 (NCI/ADR-RES ovarian) 0.394 µM | GI50 (U251 CNS) 0.413 µM | GI50 (SK-MEL-5 melanoma) 0.333 µM | GI50 (HCT-15 colon) 0.418 µM | GI50 (MCF7 breast) 0.292 µM | GI50 (KM12 colon) 0.315 µM | GI50 (HT29 colon) 0.28 µM | GI50 (A498 renal) 0.288 µM | GI50 (UACC-62 melanoma) 0.426 µM | GI50 (SF-539 CNS) 0.277 µM | GI50 (SR leukemia) 0.236 µM | GI50 (CAKI-1 renal) 0.385 µM | GI50 (T-47D breast) 0.238 µM | GI50 (DU-145 prostate) 0.326 µM | GI50 (SK-OV-3 ovarian) 0.414 µM | GI50 (RPMI-8226 leukemia) 0.348 µM | GI50 (PC-3 prostate) 0.379 µM | GI50 (SF-295 CNS) 0.362 µM | GI50 (NCI-H460 lung) 0.38 µM | GI50 (COLO 205 colon) 0.313 µM | GI50 (MDA-MB-435) 0.153 µM
11.9 µM: TGI (UO-31 renal) | TGI (MCF7 breast) | TGI (786-0 renal)
13.7 µM: TGI (SW-620 colon)
11.4 µM: TGI (U251 CNS)
19.3 µM: TGI (OVCAR-4 ovarian) | TGI (NCI-H226 lung)
5.9 µM: TGI (NCI/ADR-RES ovarian)
7.65 µM: TGI (LOX IMVI melanoma)
11.2 µM: TGI (DU-145 prostate)
27.7 µM: TGI (EKVX NSCLC)
0.675 µM: TGI (OVCAR-3 ovarian)
8.26 µM: TGI (T-47D breast)
16.7 µM: TGI (HS 578T breast)
1.15 µM: TGI (SF-539 CNS)
12.3 µM: TGI (HCT-15 colon)
11 µM: TGI (HCT-116 colon)

C=C(C)C1CC/C(C)=C/CCC2(C)OC2CC/C(CO)=C\C1O (configuration not stated)
53.5 µM: TGI (HS 578T breast)
> 100 µM: TGI (ACHN renal) | TGI (SNB-75 CNS) | TGI (EKVX NSCLC) | TGI (SK-MEL-28 melanoma) | TGI (RXF 393 renal) | TGI (CCRF-CEM leukemia) | TGI (K-562 leukemia) | TGI (HL-60(TB) leukemia) | TGI (SW-620 colon) | TGI (M14 melanoma) | TGI (TK-10 renal) | TGI (OVCAR-3 ovarian) | TGI (LOX IMVI melanoma) | TGI (UO-31 renal) | TGI (OVCAR-4 ovarian) | TGI (HOP-92 NSCLC) | TGI (NCI/ADR-RES ovarian) | TGI (U251 CNS) | TGI (HCT-15 colon) | TGI (UACC-257 melanoma) | TGI (SNB-19 CNS) | TGI (MCF7 breast) | TGI (KM12 colon) | TGI (HT29 colon) | TGI (SF-268 CNS) | TGI (OVCAR-5 ovarian) | TGI (A498 renal) | TGI (UACC-62 melanoma) | TGI (NCI-H226 lung) | TGI (SF-539 CNS) | TGI (SR leukemia) | TGI (HCC-2998 colon) | TGI (SN12C renal) | TGI (A549 NSCLC) | TGI (CAKI-1 renal) | TGI (T-47D breast) | TGI (DU-145 prostate) | TGI (SK-OV-3 ovarian) | TGI (MOLT-4 leukemia) | TGI (RPMI-8226 leukemia) | TGI (PC-3 prostate) | TGI (786-0 renal) | TGI (OVCAR-8 ovarian) | TGI (SF-295 CNS) | TGI (MDA-N) | TGI (IGROV1 ovarian) | TGI (NCI-H460 lung) | TGI (NCI-H23 lung) | TGI (COLO 205 colon) | TGI (HOP-62 NSCLC) | TGI (MDA-MB-435) | TGI (MALME-3M melanoma) | TGI (MDA-MB-231 breast) | TGI (SK-MEL-2 melanoma) | TGI (HCT-116 colon)
